Measurements reported in BigSolDB 2.1.

O=[N+]([O-])c1cc[nH]n1
solubility (mole fraction)
Settings | 283.15 K | 288.15 K | 293.15 K | 298.15 K | 303.15 K | 308.15 K | 313.15 K | 318.15 K | 323.15 K
in 1,2-dichlorobenzene | 0.0009 | 0.00242 | 0.00425 | 0.00666 | 0.00908 | 0.0113 | 0.0139 | 0.0166 | 0.0197
in 2-ethylhexyl acetate | 0.00998 | 0.0107 | 0.0115 | 0.0122 | 0.0134 | 0.0146 | 0.0166 | – | –
in anisole | 0.00502 | 0.00551 | 0.00623 | 0.00688 | 0.0078 | 0.0092 | 0.0112 | 0.0132 | 0.0156
in benzonitrile | 0.0197 | 0.0223 | 0.0253 | 0.0291 | 0.0342 | 0.0396 | 0.0486 | 0.0631 | 0.0828
in benzyl alcohol | 0.0263 | 0.0296 | 0.0333 | 0.0391 | 0.0452 | 0.0508 | 0.0581 | 0.0672 | 0.0753
in mesitylene | 0.00129 | 0.00162 | 0.002 | 0.00246 | 0.00288 | 0.00335 | 0.00401 | 0.00476 | 0.00578
in n-octanol | 0.0127 | 0.0144 | 0.0164 | 0.0192 | 0.0232 | 0.0272 | 0.0315 | 0.0362 | 0.0429
